Laboratory results: US9867879B2 (Vanderbilt University, priority 2015, dated 2018)
Entries after “also recorded” stand apart in the source; their conditions may differ. Read-outs that look alike come from different tables or passages of the source.

Experiments:
[1] = system: wild type S. aureus strain Newman; test: Growth inhibition IC50, Newman anaerobic (fermenting); type: cell-based; settings: for toxicity to fermenting / anaerobic S. aureus (in words): anaerobic Newman and ΔmenB, from IC50 data; for IC50: Staphylococcus aureus, NEWMAN, 9 h of growth, anaerobic chamber, 95% confidence interval, >60 μM considered nontoxic
Protocol: (§1) Cultures of wild type S. aureus strain Newman and ΔmenB^14 were grown in aeration tubes aerobically at 37° C. with shaking for 15-18 h. Anaerobic cultures were prepared by growing bacteria at 37° C. without shaking in an anaerobic chamber for 15-18 h. Bacteria from each condition were subcultured 1:100 into TSB containing various concentrations of compound in a 96 well plate. Aerobic wild type and ΔmenB plates are incubated aerobically at 37° C. with shaking while anaerobic plates were grown in an anaerobic chamber (Coy) at 37° C. without shaking. The absorbance at 600 nm (OD600) was determined after 9 h of growth and the fraction of growth at each compound concentration is determined by dividing the OD600 by the vehicle control (DMSO) value. IC50s were calculated using Graphpad Prism 6 and errors are reported as 95% confidence intervals.
(§2) Wild type S. aureus strain Newman was grown in an anaerobic chamber in appropriate media to ensure exclusion of terminal electron acceptors sufficient to force the bacteria to ferment. […] The arbitrary cut off point for toxicity of 60 μM was chosen as many of the compounds were not entirely soluble above this concentration.

HssRS = test: microbe, parasite or virus in culture; type: cell-based, S. aureus; settings: for HssRS activation in single point screen: 50 μM, fraction of activation relative to 1, cut-off 0.05, in words; for EC50: Staphylococcus aureus, 6 h; for Efficacy: percent activation of HssRS compared to 1 at 50 μM, error one standard deviation
Protocol: Previously reported strains were used.^11 Cultures grown overnight in 5 ml TSB with 10 μg mL^−1 chloramphenicol for 15-18 h were subcultured 1:100 into 0.5 mL TSB with 10 μg mL^−1 chloramphenicol containing compound and incubated at 37° C., 180 rpm for 6 h. Cells were washed and lysed as previously described. 200 μL of a 200 μM catechol solution in 100 mM potassium phosphate (pH 8.0) was added to 20 μL of lysate and the oxidation of catechol was followed by monitoring absorbance at 375 nm for 10 min. Samples were normalized to protein concentration as determined by BCA assay (Pierce).
The above XylE procedure was followed using different concentrations of compound. The data were then entered into Graphpad Prism 6 and fit to a curve to determine EC50 values.
HssRS activation. The library was screened for activation of the heme stress response as an indicator for activation of heme biosynthesis in S. aureus. We began by screening at the single point concentration of 50 μM using a previously described reporter assay (FIG. 4).^11 In this assay, Newman harboring a plasmid with the hrt promoter fused to xylE, a gene encoding a catechol oxidase, is treated with compound for six hours, the bacteria lysed, and the oxidation of catechol by XylE quantified by spectrophotometry. An increase in absorbance due to the oxidation of catechol indicates elevated levels of xylE transcription and hrt promoter activity. Results are expressed as the fraction of activation of HssRS by the compound compared to 1. […] With reference to FIG. 8, activation of HssRS by 3a and 3b at 50 μM. Activity is presented as the fraction of activation by the indicated derivative relative to 1 at 50 μM.

[2] = system: wild type S. aureus strain Newman; test: Growth inhibition IC50, Newman aerobic; type: cell-based; settings: Staphylococcus aureus, NEWMAN, 95% confidence interval, >60 μM considered nontoxic
Protocol: as §1, §2

ΔmenB = test: Growth inhibition IC50, ΔmenB; type: cell-based, S. aureus; settings: Staphylococcus aureus, 9 h, read-out: IC50 ΔmenB
Protocol: as §1, with “intervals. […]” for “intervals.”

[3] = 9 h of growth, aerobic, read-out: IC50 Newman aerobic
[4] = 9 h, read-out: IC50 Newman aerobic, 9 h of growth, aerobic

Structure (SMILES) | toxicity to fermenting / anaerobic S. aureus (in words) [1] | HssRS activation in single point screen (HssRS) | EC50 (HssRS) | EC50 (HssRS; read-out: pEC50 (converted)) | Efficacy (HssRS) | IC50 [2, 3] | IC50 (ΔmenB) | IC50 [1] | IC50 [2, 4] | HssRS activation (in words) (HssRS; summary statements, concentration not fixed) | drop in efficacy (HssRS; compared to 1) | toxicity relative to 4b ([1]; fermenting wildtype S. aureus and ΔmenB)
Oc1ccccc1-c1cc(-c2ccco2)[nH]n1 [Compound 1a, 2-(5-(furan-2-yl)-1H-pyrazol-3-yl)phenol] | relatively nontoxic to fermenting S. aureus | modest loss of activity compared to 1 | 30.4 µM | 32.4 µM | 28.2 ± 5.4% | > 60 µM | 35.6 µM | – | – | – | – | –
COc1ccc(-c2cc(-c3ccco3)[nH]n2)c(O)c1 [Compound 1b, 2-(5-(furan-2-yl)-1H-pyrazol-3-yl)-5-methoxyphenol] | relatively nontoxic to fermenting S. aureus | modest loss of activity compared to 1 | 50.2 µM | 50.1 µM | 26.2 ± 6.7% | – | > 60 µM | > 60 µM | > 60 µM | – | – | –
COc1c(-c2cc(-c3ccco3)[nH]n2)ccc2ccccc12 [Compound 1c, 5-(furan-2-yl)-3-(1-methoxynaphthalen-2-yl)-1H-pyrazole] | eliminates toxicity | complete loss of activity | – | – | – | – | > 60 µM | > 60 µM | > 60 µM | – | – | –
COc1ccccc1-c1cc(-c2ccco2)[nH]n1 [Compound 1d, 5-(furan-2-yl)-3-(2-methoxyphenyl)-1H-pyrazole] | – | loss of HssRS activation compared to 1 and 1a | – | – | – | – | > 60 µM | > 60 µM | > 60 µM | – | – | –
Oc1cccc(-c2cc(-c3ccco3)[nH]n2)c1 [Compound 1e, 3-(5-(furan-2-yl)-1H-pyrazol-3-yl)phenol] | – | loss of HssRS activation compared to 1 and 1a | – | – | – | – | > 60 µM | > 60 µM | > 60 µM | – | – | –
Oc1ccc(-c2cc(-c3ccco3)[nH]n2)cc1 [Compound 1f] | – | loss of HssRS activation compared to 1 and 1a | – | – | – | – | > 60 µM | > 60 µM | > 60 µM | – | – | –
c1ccc(-c2cc(-c3ccco3)[nH]n2)cc1 [Compound 1g, 5-(furan-2-yl)-3-phenyl-1H-pyrazole] | – | loss of HssRS activation compared to 1 and 1a | – | – | – | – | > 60 µM | > 60 µM | > 60 µM | – | – | –
CS(=O)(=O)Nc1ccccc1-c1cc(-c2ccco2)[nH]n1 [Compound 1h, N-(2-(5-(furan-2-yl)-1H-pyrazol-3-yl)phenyl)methanesulfonamide] | nontoxic under fermentative conditions | loss of HssRS activation compared to 1 and 1a | – | – | – | – | > 60 µM | > 60 µM | > 60 µM | – | – | –
COc1ccc(C(=O)Nc2ccccc2-c2cc(-c3ccco3)[nH]n2)cc1 [Compound 1j, N-(2-(5-(furan-2-yl)-1H-pyrazol-3-yl)phenyl)-4-methoxybenzamide] | – | – | – | – | – | – | 6.63 µM | 11.6 µM | > 60 µM | – | – | –
O=C(Nc1ccccc1-c1cc(-c2ccco2)[nH]n1)c1cccc2ccccc12 [Compound 1k, N-(2-(5-(furan-2-yl)-1H-pyrazol-3-yl)phenyl)-1-naphthamide] | – | – | – | – | – | – | 5.89 µM | 13.4 µM | > 60 µM | – | – | –
O=C(Nc1ccccc1-c1cc(-c2ccco2)[nH]n1)c1ccco1 [Compound 1l, N-(2-(5-furan-2-yl)-1H-pyrazol-3-yl)phenylfuran-2-carboxamide] | – | – | – | – | – | – | 21.4 µM | 28.8 µM | > 60 µM | – | – | –
Oc1ccccc1-c1cc(-c2ccoc2)[nH]n1 [Compound 2b] | – | – | – | – | – | – | > 60 µM | > 60 µM | > 60 µM | – | – | –
Oc1ccccc1-c1cc(-c2ccccc2)[nH]n1 [Compound 2c, 2-(5-phenyl-1H-pyrazol-3-yl)phenol] | anaerobic toxicity similar to 1; also recorded: restores toxicity comparable to 1 | restore activity comparable to 1 | 14.6 µM | 21.9 µM | 87.8 ± 23.7% | > 60 µM | 25.2 µM | 24 µM | – | maintains HssRS activity | – | –
Oc1ccccc1-c1cc(-c2cc(F)ccc2F)[nH]n1 [Compound 2f, 2-(5-(2,5-difluorophenyl)-1H-pyrazol-3-yl)phenol] | eliminates this toxicity | comparable to 1a in activity | 13.6 µM | 12.6 µM | 30.1 ± 8.0% | – | > 60 µM | > 60 µM | > 60 µM | – | ~70% | –
Oc1ccccc1-c1cc(-c2ccccn2)[nH]n1 [Compound 2g] | – | – | – | – | – | – | > 60 µM | > 60 µM | > 60 µM | – | – | –
Oc1ccccc1-c1cc(-c2cccnc2)[nH]n1 [Compound 2h, 2-(5-(pyridin-3-yl)-1H-pyrazol-3-yl)phenol] | – | – | – | – | – | – | > 60 µM | > 60 µM | > 60 µM | – | – | –
Oc1ccccc1-c1cc[nH]n1 [Compound 2j, 2-(1H-pyrazol-3-yl)phenol] | nontoxic under all conditions | eliminates activity compared to 1 and 1a | – | – | – | – | > 60 µM | > 60 µM | > 60 µM | – | – | –
Cc1cc(-c2ccccc2O)n[nH]1 [Compound 2k, 2-(5-methyl-1H-pyrazol-3-yl)phenol] | nontoxic under all conditions | – | – | – | – | – | > 60 µM | > 60 µM | > 60 µM | – | – | –
CCc1cc(-c2ccccc2O)n[nH]1 [Compound 2l, 2-(5-ethyl-1H-pyrazol-3-yl)phenol] | nontoxic under all conditions | – | – | – | – | – | > 60 µM | > 60 µM | > 60 µM | – | – | –
CC(C)(C)c1cc(-c2ccccc2O)n[nH]1 [Compound 2m, 2-(5-(tert-butyl)-1H-pyrazol-3-yl)phenol] | nontoxic under all conditions | – | – | – | – | – | > 60 µM | > 60 µM | > 60 µM | – | – | –
Oc1ccccc1-c1cc(C2CCCC2)[nH]n1 [Compound 2n, 2-(5-cyclopentyl-1H-pyrazol-3-yl)phenol] | comparably toxic to 1 | – | – | – | – | – | 29.7 µM | 25.3 µM | > 60 µM | – | – | –
COc1ccccc1-c1cc(-c2ccccc2F)[nH]n1 [Compound 3b, 5-(2-fluorophenyl)-3-(2-methoxyphenyl)-1H-pyrazole] | eliminates toxicity | – | – | – | – | – | > 60 µM | > 60 µM | > 60 µM | – | – | –
Cn1nc(-c2ccco2)cc1-c1ccc2ccccc2c1O [Compound 4a, 2-(3-(furan-2-yl)-1-methyl-1H-pyrazol-5-yl)naphthalen-1-ol] | maintains toxicity comparable to the parent molecule | complete loss of activity | – | – | – | – | 15.7 µM | 26.5 µM | > 60 µM | – | – | approximately five times less toxic
